The subject of one test is Pseudomonas aeruginosa. Briefly: Antibacterial activity against Pseudomonas aeruginosa AG220. Type of test: functional.
For the next test, the target named is Bacterial 70S ribosome. Briefly: Antiribosomal activity against wild type bacterial ribosomes assessed as inhibition of luciferase production by cell-free translation assay. The format is subcellular, Bacteria.
Test [1] is described as follows: Antiribosomal activity against humanized bacterial ribosome incorporating complete decoding A site from human mitochondrial ribosome Mit13 assessed as inhibition of luciferase production by cell-free translation assay.
A further test relates to Staphylococcus aureus. Briefly: Antibacterial activity against Methicillin-resistant Staphylococcus aureus AG038. Type of test: functional.
Test [2] can be described thus: Antiribosomal activity against humanized bacterial ribosome incorporating human cytoplasmic ribosome Cyt14 assessed as inhibition of luciferase production by cell-free translation assay.
Test [3] in a line: Antiribosomal activity against humanized bacterial ribosome incorporating A1555G mutant of human mitochondrial ribosome assessed as inhibition of luciferase production by cell-free translation assay.
Test [4] in a line: Selectivity ratio of IC50 for antiribosomal activity against humanized bacterial ribosome incorporating human cytoplasmic ribosome Cyt14 to IC50 for antiribosomal activity against wild type bacterial ribosomes.
A further test concerns Klebsiella pneumoniae. The test is described as follows: Antibacterial activity against Klebsiella pneumoniae AG215. The format is functional.
In a further test the test system is Escherichia coli. Briefly: Antibacterial activity against Escherichia coli AG001. The format is functional.
A further test deals with Acinetobacter baumannii. Briefly: Antibacterial activity against Acinetobacter baumannii AG309. Type of test: functional.
The test system of the next test is Enterobacter cloacae. The test is described as follows: Antibacterial activity against Enterobacter cloacae AG290. Type of test: functional.
Test [5] in a line: Selectivity ratio of IC50 for antiribosomal activity against humanized bacterial ribosome incorporating complete decoding A site from human mitochondrial ribosome Mit13 to IC50 for antiribosomal activity against wild type bacterial ribosomes.
Test [6] in a line: Selectivity ratio of IC50 for antiribosomal activity against humanized bacterial ribosome incorporating A1555G mutant of human mitochondrial ribosome to IC50 for antiribosomal activity against wild type bacterial ribosomes.

Converted amounts (≈) assume the structure as drawn.

With `CN[C@@H]1[C@@H](O[C@H]2O[C@H](CO)[C@@H](O)[C@H](O)[C@H]2O)O[C@H]2C[C@@H](N)[C@@H](O[C@H]3[C@H](O)[C@@H](O)[C@H](N)C[C@@H]3N)O[C@@H]2[C@@H]1O`, the Activity was 8 to 16 µg/mL in the test on Pseudomonas aeruginosa; 32 µg/mL in the test with Staphylococcus aureus; 4 µg/mL in the test on Klebsiella pneumoniae; 8 to 16 µg/mL in the test with Escherichia coli; 8 µg/mL with Acinetobacter baumannii; 4 to 8 µg/mL in the test with Enterobacter cloacae. The IC50 on Bacterial 70S ribosome is 0.296 µM; in test [1], over 500 mg/L; in test [2], 437 mg/L (≈ 808 µM); in [3], 307 mg/L (≈ 568 µM). Also, the Ratio IC50 in test [4] is 2730; in test [5] it was over 3120; in test [6], 1920.

Regarding `CN[C@@H]1[C@@H](O[C@H]2O[C@H](CO)[C@@H](N)[C@H](O)[C@H]2O)O[C@H]2C[C@@H](N)[C@@H](O[C@H]3[C@H](O)[C@@H](O)[C@H](N)C[C@@H]3N)O[C@@H]2[C@@H]1O`, the Activity is 4 µg/mL in the test with Pseudomonas aeruginosa; 4 µg/mL with Staphylococcus aureus; 1 to 2 µg/mL in the test with Klebsiella pneumoniae; 4 µg/mL in the test with Escherichia coli; 4 µg/mL in the test on Acinetobacter baumannii; 2 to 4 µg/mL with Enterobacter cloacae. Besides, the IC50 was 0.145 µM on Bacterial 70S ribosome, 67 mg/L (≈ 124 µM) in test [1], 69 mg/L (≈ 128 µM) in [2] and 40 mg/L (≈ 74.1 µM) in [3]. In addition, the Ratio IC50 in [4] is 885; in test [5], 859; in [6] it was 513.

The values above are taken from ChEMBL document CHEMBL4480383, “Synthesis of saccharocin from apramycin and evaluation of its ribosomal selectivity” (Medchemcomm, 2019).
